Each molecule was assayed on HBV (assay: HBV-DNA antiviral assay using HepG2.117 cells (intracellular HBV DNA by qPCR)). Conditions: HBV DNA inhibition, 3 days incubation, read-out: EC50.
Assay type: cell-based, HBV genotype D
In short: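 HepG2.117 cells (stably integrated genotype D HBV, Tet-off) seeded without doxycycline to induce pgRNA, then treated next day with 9 concentrations (4-fold dilutions, 2% DMSO) for 3 days at 37 °C. Intracellular HBV DNA quantified by qPCR against standard curve, viability by ATP content; inhibition relative to DMSO control, EC50/EC90/CC50 by non-linear regression.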
Work on `CC1Cn2c(c(C(=O)NCc3ccccc3-c3ccncn3)n(-c3ccc(OC4CC4)cc3)c2=O)CN1C(=O)c1ccc(Br)c(C(F)F)c1` (single isomer, unassigned) [Compound 16b, 7-[4-bromo-3-(difluoromethyl)benzoyl]-2-[4-(cyclopropoxy)phenyl]-6-methyl-3-oxo-N-[(2-pyrimidin-4-ylphenyl)methyl]-6,8-dihydro-5H-imidazo[1,5-a]pyrazine-1-carboxamide] yielded an EC50 of less than 50 nM.
For `Cc1nc2cc(-n3c(C(=O)NCc4ccccc4-c4ccncn4)c4n(c3=O)CC(C)N(C(=O)c3ccc(Br)c(C(F)(F)F)c3)C4)ccc2o1` (single isomer, unassigned) [Compound 48b], the EC50 was less than 50 nM.
Work on `CC1Cn2c(c(C(=O)NCc3ccccc3-n3cc(F)cn3)n(-c3ccc(N4CCO[C@H](C)C4)cc3)c2=O)CN1C(=O)c1ccc(Br)c(Cl)c1` (stereo in doubt) [Compound 14b, (6S*)-7-(4-bromo-3-chloro-benzoyl)-N-[[2-(4-fluoropyrazol-1-yl)phenyl]methyl]-6-methyl-2-[4-[(2R)-2-methylmorpholin-4-yl]phenyl]-3-oxo-6,8-dihydro-5H-imidazo[1,5-a]pyrazine-1-carboxamide] yielded an EC50 of less than 50 nM.
For `CC1Cn2c(c(C(=O)NCc3c(F)cccc3Cl)n(-c3ccc4c(cnn4CC(F)(F)F)c3)c2=O)CN1C(=O)c1ccc(Br)c(C(F)(F)F)c1` (single isomer, unassigned) [Compound 104b], the EC50 was 50 to 500 nM.
Molecule `CC1Cn2c(c(C(=O)NCc3ccccc3-c3ncccn3)n(-c3ccc(OCC4(O)CC4)cc3)c2=O)CN1C(=O)c1ccc(Br)c(C(F)(F)F)c1` (single isomer, unassigned) [Compound 81b] has an EC50 of less than 50 nM.
`CC1Cn2c(c(C(=O)NCc3ccccc3-c3ccncn3)n(-c3ccc(OC4CC4)cc3)c2=O)CN1C(=O)c1ccc(Br)c(Cl)c1` (single isomer, unassigned) [Compound 9b, 7-(4-bromo-3-chloro-benzoyl)-2-[4-(cyclopropoxy)phenyl]-6-methyl-3-oxo-N-[(2-pyrimidin-4-ylphenyl)methyl]-6,8-dihydro-5H-imidazo[1,5-a]pyrazine-1-carboxamide] gave an EC50 of less than 50 nM.
`CC1Cn2c(c(C(=O)NCc3ccccc3-c3cc[nH]n3)n(-c3ccc(OC4CC4)cc3)c2=O)CN1C(=O)c1ccc(Br)c(Cl)c1` (single isomer, unassigned) [Compound 51b] gave an EC50 of less than 50 nM.
In the case of `CC1(O)CCN(c2ccc(-n3c(C(=O)NCc4ccccc4)c4n(c3=O)CCN(C(=O)c3ccc(Br)c(Cl)c3)C4)cc2)C1` (single isomer, unassigned) [Compound 115b], the EC50 is reported as 50 to 500 nM.
`CC1Cn2c(c(C(=O)NCc3ccccc3-c3nnco3)n(-c3ccc(N4CC5(CN(C)C5)C4)cc3)c2=O)CN1C(=O)c1ccc(Br)c(C(F)(F)F)c1` (single isomer, unassigned) [Compound 112b] was tested, and the EC50 was 500 to 5000 nM.
In the case of `CC1Cn2c(c(C(=O)NCc3c(F)cccc3-n3cccn3)n(-c3ccc(OC4CC4)cc3)c2=O)CN1C(=O)c1ccc(Br)c(C(F)(F)F)c1` (single isomer, unassigned) [Compound 25b], the EC50 is reported as less than 50 nM.

Same assay, conditions: Hepatitis B virus, HepG2.117, 72 h, HBV DNA inhibition, 3 days incubation, read-out: EC50
Work on `CC1Cn2c(c(C(=O)NCc3ccccc3-c3ccnc(N)n3)n(-c3ccc(OC4CC4)cc3)c2=O)CN1C(=O)c1ccc(Br)c(Cl)c1` (single isomer, unassigned) [Compound 11a, N-[[2-(2-aminopyrimidin-4-yl)phenyl]methyl]-7-(4-bromo-3-chloro-benzoyl)-2-[4-(cyclopropoxy)phenyl]-6-methyl-3-oxo-6,8-dihydro-5H-imidazo[1,5-a]pyrazine-1-carboxamide] yielded an EC50 of less than 50 nM.
`C[C@H](O)COc1ccc(-n2c(C(=O)NCc3ccccc3-c3ccccn3)c3n(c2=O)C[C@@H](C)N(C(=O)c2ccc(Br)c(C(F)(F)F)c2)C3)cc1` (mixture of isomers) [Compound 61a, (6RS)-7-[4-bromo-3-(trifluoromethyl)benzoyl]-2-[4-[(2S)-2-hydroxypropoxy]phenyl]-6-methyl-3-oxo-N-[[2-(2-pyridyl)phenyl]methyl]-6,8-dihydro-5H-imidazo[1,5-a]pyrazine-1-carboxamide] gave an EC50 of less than 50 nM.
Work on `CC1Cn2c(c(C(=O)NCc3ccccc3-c3cccc(N)n3)n(-c3ccc(OC4CC4)cc3)c2=O)CN1C(=O)c1ccc(Br)c(C(F)(F)F)c1` (single isomer, unassigned) [Compound 27a] yielded an EC50 of less than 50 nM.
`CC1Cn2c(c(C(=O)NCc3ccccc3-c3ncccn3)n(-c3ccc(OC[C@@H](O)C(F)(F)F)cc3)c2=O)CN1C(=O)c1ccc(Br)c(C(F)(F)F)c1` (stereo in doubt) [Compound 71a, (6R*)-7-[4-bromo-3-(trifluoromethyl)benzoyl]-6-methyl-3-oxo-N-{[2-(pyrimidin-2-yl)phenyl]methyl}-2-{4-[(2R)-3,3,3-trifluoro-2-hydroxypropoxy]phenyl}-5H,6H,8H-imidazo[1,5-a]pyrazine-1-carboxamide] was tested, and the EC50 was less than 50 nM.
Work on `C[C@@H](O)COc1ccc(-n2c(C(=O)NCc3ccccc3-c3ncccn3)c3n(c2=O)C[C@H](C)N(C(=O)c2ccc(Br)c(C(F)(F)F)c2)C3)cc1` (mixture of isomers) [Compound 64b, (6SR)-7-[4-bromo-3-(trifluoromethyl)benzoyl]-2-[4-[(2R)-2-hydroxypropoxy]phenyl]-6-methyl-3-oxo-N-[(2-pyrimidin-2-ylphenyl)methyl]-6,8-dihydro-5H-imidazo[1,5-a]pyrazine-1-carboxamide] yielded an EC50 of 50 to 500 nM.
`C[C@@H]1Cn2c(c(C(=O)NCc3ccccc3-c3ccncn3)n(-c3ccc4c(cnn4CC(F)(F)F)c3)c2=O)CN1C(=O)c1ccc(Br)c(C(F)(F)F)c1` (stereo in doubt) [Compound 72a, rac-(6R)-7-[4-bromo-3-(trifluoromethyl)benzoyl]-6-methyl-3-oxo-N-[(2-pyrimidin-4-ylphenyl)methyl]-2-[1-(2,2,2-trifluoroethyl)indazol-5-yl]-6,8-dihydro-SH-imidazo[1,5-a]pyrazine-1-carboxamide] gave an EC50 of less than 50 nM.
Molecule `C[C@H]1Cn2c(c(C(=O)NCc3ccccc3-c3ccccn3)n(-c3ccc(OC[C@](C)(O)C(F)(F)F)cc3)c2=O)CN1C(=O)c1ccc(Br)c(C(F)(F)F)c1` (stereo in doubt) [Compound 90b, rac-(6S)-7-[4-bromo-3-(trifluoromethyl)benzoyl]-6-methyl-3-oxo-N-[[2-(2-pyridyl)phenyl]methyl]-2-[4-[rac-(2S)-3,3,3-trifluoro-2-hydroxy-2-methyl-propoxy]phenyl]-6,8-dihydro-5H-imidazo[1,5-a]pyrazine-1-carboxamide] has an EC50 of 50 to 500 nM.
`Cc1nnc(-c2ccccc2CNC(=O)c2c3n(c(=O)n2-c2ccc4oc(C)nc4c2)CC(C)N(C(=O)c2ccc(Br)c(Cl)c2)C3)o1` (single isomer, unassigned) [Compound 53a] showed an EC50 of 50 to 500 nM.
`C[C@@H]1Cn2c(c(C(=O)NCc3ccccc3-c3ncccn3)n(-c3ccc4nn(C[C@H](O)C(F)(F)F)cc4c3)c2=O)CN1C(=O)c1ccc(Br)c(C(F)(F)F)c1` (mixture of isomers) [Compound 107a, (6RS)-7-[4-bromo-3-(trifluoromethyl)benzoyl]-6-methyl-3-oxo-N-[(2-pyrimidin-2-ylphenyl)methyl]-2-[2-[(2S)-3,3,3-trifluoro-2-hydroxy-propyl]indazol-5-yl]-6,8-dihydro-5H-imidazo[1,5-a]pyrazine-1-carboxamide] showed an EC50 of 50 to 500 nM.
With `CC1Cn2c(c(C(=O)NCc3ccccc3-c3ccncn3)n(-c3ccc4oc(N)nc4c3)c2=O)CN1C(=O)c1ccc(Br)c(Cl)c1` (single isomer, unassigned) [Compound 92a] the EC50 was 500 to 5000 nM.
`CC1Cn2c(c(C(=O)NCc3ccccc3-c3ccncn3)n(-c3ccc(-n4cccn4)cc3)c2=O)CN1C(=O)c1ccc(Br)c(Cl)c1` (single isomer, unassigned) [Compound 4a, 7-(4-bromo-3-chloro-benzoyl)-6-methyl-3-oxo-2-(4-pyrazol-1-ylphenyl)-N-[(2-pyrimidin-4-ylphenyl)methyl]-6,8-dihydro-5H-imidazo[1,5-a]pyrazine-1-carboxamide] showed an EC50 of 50 to 500 nM.
For `C[C@@H]1Cn2c(c(C(=O)NCc3ccccc3-c3ccncn3)n(-c3ccc(OC[C@H](O)C(F)(F)F)cc3)c2=O)CN1C(=O)c1ccc(Br)c(C(F)(F)F)c1` (stereo in doubt) [Compound 63a, (6RS)-7-[4-bromo-3-(trifluoromethyl)benzoyl]-6-methyl-3-oxo-N-[(2-pyrimidin-4-ylphenyl)methyl]-2-[4-[(25)-3,3,3-trifluoro-2-hydroxy-propoxy]phenyl]-6,8-dihydro-5H-imidazo[1,5-a]pyrazine-1-carboxamide], the EC50 was less than 50 nM.
`CC1Cn2c(c(C(=O)NCc3ccccc3-c3nccc(N)n3)n(-c3ccc(OC4CC4)cc3)c2=O)CN1C(=O)c1ccc(Br)c(Cl)c1` (single isomer, unassigned) [Compound 30a] showed an EC50 of 50 to 500 nM.
Molecule `CC1Cn2c(c(C(=O)NCc3c(F)cccc3-n3cccn3)n(-c3ccc(OC4CC4)cc3)c2=O)CN1C(=O)c1ccc(Br)c(Cl)c1` (single isomer, unassigned) [Compound 24a] has an EC50 of 50 to 500 nM.
For `COc1nccc(-c2ccccc2CNC(=O)c2c3n(c(=O)n2-c2ccc(OC4CC4)cc2)CC(C)N(C(=O)c2ccc(Br)c(C(F)(F)F)c2)C3)n1` (single isomer, unassigned) [Compound 38a], the EC50 was less than 50 nM.
Molecule `CNc1ccnc(-c2ccccc2CNC(=O)c2c3n(c(=O)n2-c2ccc(OC4CC4)cc2)CC(C)N(C(=O)c2ccc(Br)c(C(F)(F)F)c2)C3)n1` (racemic) [Compound 28a, rac-(6R)-7-[4-bromo-3-(trifluoromethyl)benzoyl]-2-[4-(cyclopropoxy)phenyl]-6-methyl-N-[[2-[4-(methylamino)pyrimidin-2-yl]phenyl]methyl]-3-oxo-6,8-dihydro-5H-imidazo[1,5-a]pyrazine-1-carboxamide] has an EC50 of less than 50 nM.

— patent publication US11845752B2, “Substituted imidazo[1,5-a]pyrazines for the treatment of hepatitis B” (ALIGOS THERAPEUTICS, INC., priority 2020, dated 2023)
